Experimental data reported in patent publication US20240109917A1 (ACTELION PHARMACEUTICALS LTD, priority 2020, published 2024).
pIC50: −log10 of the molar value.

How the values were obtained:
[1] = molecular target: Tb-labeled inactive PDGFRβ (Homo sapiens (Human), UniProt P09619); test: PDGFRβ LanthaScreen Assay; assay type: binding; conditions: read-out: PDGFR Lantha IC50
[2] = molecular target: VEGFR2, unphosphorylated (Homo sapiens (Human), UniProt P35968); test: VEGFR ADP GLO Assay; assay type: biochemical
VEGFR2, unphosphorylated, sequence (P35968 20-1356): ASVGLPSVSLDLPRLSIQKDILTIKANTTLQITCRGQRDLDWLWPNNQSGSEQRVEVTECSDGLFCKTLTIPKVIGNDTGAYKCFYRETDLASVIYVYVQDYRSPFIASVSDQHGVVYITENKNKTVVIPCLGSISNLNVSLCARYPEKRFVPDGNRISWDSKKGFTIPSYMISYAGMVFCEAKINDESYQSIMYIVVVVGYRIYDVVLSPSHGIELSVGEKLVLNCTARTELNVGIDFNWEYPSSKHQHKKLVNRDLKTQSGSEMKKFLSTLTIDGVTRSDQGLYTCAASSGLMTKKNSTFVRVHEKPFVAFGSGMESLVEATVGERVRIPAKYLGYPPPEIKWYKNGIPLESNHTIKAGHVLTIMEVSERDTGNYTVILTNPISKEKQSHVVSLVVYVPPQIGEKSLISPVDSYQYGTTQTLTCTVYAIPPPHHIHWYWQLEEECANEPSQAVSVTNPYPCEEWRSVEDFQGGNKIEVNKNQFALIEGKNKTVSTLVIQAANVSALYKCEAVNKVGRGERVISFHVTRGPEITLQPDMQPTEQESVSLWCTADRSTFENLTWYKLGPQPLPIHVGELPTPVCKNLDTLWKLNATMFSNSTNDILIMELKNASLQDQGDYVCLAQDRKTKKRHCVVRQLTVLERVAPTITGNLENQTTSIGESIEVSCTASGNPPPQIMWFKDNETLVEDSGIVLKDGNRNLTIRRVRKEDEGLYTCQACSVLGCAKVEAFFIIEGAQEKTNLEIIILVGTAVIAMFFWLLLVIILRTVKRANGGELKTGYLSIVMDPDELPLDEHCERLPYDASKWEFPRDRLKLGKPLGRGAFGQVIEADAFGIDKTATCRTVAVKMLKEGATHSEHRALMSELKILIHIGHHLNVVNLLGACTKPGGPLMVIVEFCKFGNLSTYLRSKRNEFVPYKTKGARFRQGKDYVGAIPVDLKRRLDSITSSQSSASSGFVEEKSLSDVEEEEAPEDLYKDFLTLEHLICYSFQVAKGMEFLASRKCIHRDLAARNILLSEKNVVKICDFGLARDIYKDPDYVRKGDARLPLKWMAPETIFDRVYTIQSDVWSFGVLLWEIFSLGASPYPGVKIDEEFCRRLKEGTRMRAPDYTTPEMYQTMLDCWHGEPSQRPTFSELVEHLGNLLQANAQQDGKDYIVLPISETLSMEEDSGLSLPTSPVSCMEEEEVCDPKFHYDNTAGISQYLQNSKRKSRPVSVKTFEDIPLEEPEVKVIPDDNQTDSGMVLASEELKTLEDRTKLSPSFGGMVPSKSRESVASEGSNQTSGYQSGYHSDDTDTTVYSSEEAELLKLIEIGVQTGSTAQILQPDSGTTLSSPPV

Tb-labeled inactive PDGFRβ, sequence (P09619 33-1106): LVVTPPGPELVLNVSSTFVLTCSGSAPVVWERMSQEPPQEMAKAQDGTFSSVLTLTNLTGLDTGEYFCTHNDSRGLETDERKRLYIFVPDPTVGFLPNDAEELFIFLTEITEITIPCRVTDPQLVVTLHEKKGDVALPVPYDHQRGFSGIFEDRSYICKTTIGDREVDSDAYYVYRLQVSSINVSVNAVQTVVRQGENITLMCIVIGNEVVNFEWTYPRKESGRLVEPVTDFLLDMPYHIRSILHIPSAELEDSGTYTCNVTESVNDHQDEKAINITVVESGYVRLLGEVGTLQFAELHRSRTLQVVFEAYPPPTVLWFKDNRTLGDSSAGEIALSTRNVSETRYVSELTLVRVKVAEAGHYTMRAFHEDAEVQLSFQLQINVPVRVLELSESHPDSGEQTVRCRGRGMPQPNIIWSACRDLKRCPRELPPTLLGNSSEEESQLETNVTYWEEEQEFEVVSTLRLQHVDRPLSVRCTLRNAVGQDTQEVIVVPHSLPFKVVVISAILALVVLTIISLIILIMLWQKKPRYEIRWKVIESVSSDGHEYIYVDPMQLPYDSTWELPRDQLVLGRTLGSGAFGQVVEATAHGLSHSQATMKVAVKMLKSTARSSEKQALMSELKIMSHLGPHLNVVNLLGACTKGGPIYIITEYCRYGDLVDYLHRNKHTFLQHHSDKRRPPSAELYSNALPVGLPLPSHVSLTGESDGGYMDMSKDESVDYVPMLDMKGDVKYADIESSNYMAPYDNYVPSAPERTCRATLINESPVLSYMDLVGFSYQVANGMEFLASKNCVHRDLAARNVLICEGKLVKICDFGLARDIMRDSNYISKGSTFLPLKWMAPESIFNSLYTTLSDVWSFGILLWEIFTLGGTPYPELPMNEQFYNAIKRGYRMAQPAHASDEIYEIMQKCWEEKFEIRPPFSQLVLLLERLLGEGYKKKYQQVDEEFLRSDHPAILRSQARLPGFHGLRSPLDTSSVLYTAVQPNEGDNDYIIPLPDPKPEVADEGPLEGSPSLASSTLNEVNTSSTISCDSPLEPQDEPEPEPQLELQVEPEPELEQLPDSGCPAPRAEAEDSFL

SMILES	pIC50 [1]	pIC50 [2]
Cc1ncc(NC(=O)NCC2CCN(C(C)C)CC2)cc1NC(=O)c1cnn2cc(-c3cnn(C)c3)sc12 [Example 109, N-(5-(3-((1-isopropylpiperidin-4-yl)methyl)ureido)-2-methylpyridin-3-yl)-2-(1-methyl-1H-pyrazol-4-yl)pyrazolo[5,1-b]thiazole-7-carboxamide]	5.72	< 5.12
Cc1ncc(C(=O)NCCN2CCCC2(C)C)cc1NC(=O)c1cnn2cc(-c3cn(C)cn3)sc12 [Example 163, N-(5-((2-(2,2-dimethylpyrrolidin-1-yl)ethyl)carbamoyl)-2-methylpyridin-3-yl)-2-(1-methyl-1H-imidazol-4-yl)pyrazolo[5,1-b]thiazole-7-carboxamide]	8.41	< 5.12
Cc1ncc(C(=O)NCCN2CCC3(CC3)C2)cc1NC(=O)c1cnn2cc(-c3cnn(C)c3)sc12 [Example 118, N-(5-((2-(5-azaspiro[2.4]heptan-5-yl)ethyl)carbamoyl)-2-methylpyridin-3-yl)-2-(1-methyl-1H-pyrazol-4-yl)pyrazolo[5,1-b]thiazole-7-carboxamide]	8.15	< 5.12
COCCn1cc(-c2cn3ncc(C(=O)Nc4cc(C(=O)NCCN5CC6CCC5CC6)cnc4C)c3s2)cn1 [Example 142, N-(5-((2-(2-azabicyclo[2.2.2]octan-2-yl)ethyl)carbamoyl)-2-methylpyridin-3-yl)-2-(1-(2-methoxyethyl)-1H-pyrazol-4-yl)pyrazolo[5,1-b]thiazole-7-carboxamide]	8.38	< 5.12
Cc1ncc(C(=O)NCCN2CC3CCC2CC3)cc1NC(=O)c1cnn2cc(-c3cnn(C4COC4)c3)sc12 [Example 144, N-(5-((2-(2-azabicyclo[2.2.2]octan-2-yl)ethyl)carbamoyl)-2-methylpyridin-3-yl)-2-(1-(oxetan-3-yl)-1H-pyrazol-4-yl)pyrazolo[5,1-b]thiazole-7-carboxamide]	8.44	< 5.12
Cc1ncc(C(=O)NCCN2CC(F)(F)C2)cc1NC(=O)c1cnn2cc(-c3cnn(C)c3)sc12 [Example 125, N-(5-((2-(3,3-difluoroazetidin-1-yl)ethyl)carbamoyl)-2-methylpyridin-3-yl)-2-(1-methyl-1H-pyrazol-4-yl)pyrazolo[5,1-b]thiazole-7-carboxamide]	8.28	< 5.12
Cc1ncc(C(=O)NCCN2CCC3(CC3)C2)cc1NC(=O)c1cnn2cc(-c3cnn(C)c3C)sc12 [Example 170, N-(5-((2-(5-azaspiro[2.4]heptan-5-yl)ethyl)carbamoyl)-2-methylpyridin-3-yl)-2-(1,5-dimethyl-1H-pyrazol-4-yl)pyrazolo[5,1-b]thiazole-7-carboxamide]	8.39	< 5.12
Cc1ncc(C(=O)NCCN2CCC23CCC3)cc1NC(=O)c1cnn2cc(-c3cnn(C)c3C)sc12 [Example 169, N-(5-((2-(1-azaspiro[3.3]heptan-1-yl)ethyl)carbamoyl)-2-methylpyridin-3-yl)-2-(1,5-dimethyl-1H-pyrazol-4-yl)pyrazolo[5,1-b]thiazole-7-carboxamide]	8.55	< 5.12
Cc1ncc(C(=O)NCCN2CCCC2(C)C)cc1NC(=O)c1cnn2cc(-c3ccn(C)n3)sc12 [Example 9, N-(5-((2-(2,2-dimethylpyrrolidin-1-yl)ethyl)carbamoyl)-2-methylpyridin-3-yl)-2-(1-methyl-1H-pyrazol-3-yl)pyrazolo[5,1-b]thiazole-7-carboxamide]	8.46	< 5.12
Cc1ncc(C(=O)NCCN2C3CCCC2CCC3)cc1NC(=O)c1cnn2cc(-c3cnn(C)c3)sc12 [Example 4, N-(5-((2-(9-azabicyclo[3.3.1]nonan-9-yl)ethyl)carbamoyl)-2-methylpyridin-3-yl)-2-(1-methyl-1H-pyrazol-4-yl)pyrazolo[5,1-b]thiazole-7-carboxamide]	8.64	< 5.12
Cc1ncc(C(=O)NCCN2CC(C)(C)C2)cc1NC(=O)c1cnn2cc(-c3cn(C)cn3)sc12 [Example 161]	7.92	< 5.12
Cc1ncc(C(=O)NCCN2CCCC(F)(F)C2)cc1NC(=O)c1cnn2cc(-c3cnn(C)c3)sc12 [Example 123, N-(5-((2-(3,3-difluoropiperidin-1-yl)ethyl)carbamoyl)-2-methylpyridin-3-yl)-2-(1-methyl-1H-pyrazol-4-yl)pyrazolo[5,1-b]thiazole-7-carboxamide]	8.57	< 5.12
Cc1ncc(C(=O)NCCN2CC3CCC2CC3)cc1NC(=O)c1cnn2cc(-c3ccc4oc(=O)[nH]c4c3)sc12 [Example 145, N-(5-((2-(2-azabicyclo[2.2.2]octan-2-yl)ethyl)carbamoyl)-2-methylpyridin-3-yl)-2-(2-oxo-2,3-dihydrobenzo[d]oxazol-5-yl)pyrazolo[5,1-b]thiazole-7-carboxamide]	8.85	< 6.08
Cc1ncc(C(=O)NCCN2CC(C)(C)C2)cc1NC(=O)c1cnn2cc(-c3cccnc3)sc12 [Example 158, N-(5-((2-(3,3-dimethylazetidin-1-yl)ethyl)carbamoyl)-2-methylpyridin-3-yl)-2-(pyridin-3-yl)pyrazolo[5,1-b]thiazole-7-carboxamide]	7.49	< 5.12
CC(=O)N1CCN(CCNC(=O)c2cnc(C)c(NC(=O)c3cnn4cc(-c5cnn(C)c5)sc34)c2)CC1 [Example 129, N-(5-((2-(4-acetylpiperazin-1-yl)ethyl)carbamoyl)-2-methylpyridin-3-yl)-2-(1-methyl-1H-pyrazol-4-yl)pyrazolo[5,1-b]thiazole-7-carboxamide]	7.06	< 5.12
Cc1ncc(C(=O)NCCN2CC3CCC2CC3)cc1NC(=O)c1cnn2cc(-c3cnn(CS(C)(=O)=O)c3)sc12 [Example 143, N-(5-((2-(2-azabicyclo[2.2.2]octan-2-yl)ethyl)carbamoyl)-2-methylpyridin-3-yl)-2-(1-((methylsulfonyl)methyl)-1H-pyrazol-4-yl)pyrazolo[5,1-b]thiazole-7-carboxamide]	8.28	< 5.12
Cc1ncc(C(=O)NCCN2CC(C)(C)C2)cc1NC(=O)c1cnn2cc(-c3cnn(C)c3)sc12 [Example 126, N-(5-((2-(3,3-dimethylazetidin-1-yl)ethyl)carbamoyl)-2-methylpyridin-3-yl)-2-(1-methyl-1H-pyrazol-4-yl)pyrazolo[5,1-b]thiazole-7-carboxamide]	7.99	< 5.12
Cc1ncc(C(=O)NCCN2CC3CCC2CC3)cc1NC(=O)c1cnn2cc(-c3cn(C)nc3C)sc12 [Example 178, N-(5-((2-(2-azabicyclo[2.2.2]octan-2-yl)ethyl)carbamoyl)-2-methylpyridin-3-yl)-2-(1,3-dimethyl-1H-pyrazol-4-yl)pyrazolo[5,1-b]thiazole-7-carboxamide]	8.74	< 5.12
